# US20160272617A1, “SUBSTITUTED PHENYLALANINE DERIVATIVES” (BAYER PHARMA AKTIENGESELLSCHAFT, priority 2013, published 2016)
# Counter-ions that a name gives are not always drawn.
# Assays:
# human and animal plasma = assay: Determination of anticoagulatory activity: activated partial thromboplastin time (aPTT) in plasma; details: concentration of test substance which brings about a 1.5-fold extension of the aPTT; plasma species not given
# Method: The anticoagulatory activity of the test substances is determined in vitro in human and animal plasma (for example mouse, rat, rabbit, pig and dog plasma). To this end, blood is drawn off in a mixing ratio of sodium citrate/blood of 1:9 using a 0.11 molar sodium citrate solution as receiver. Immediately after the blood has been drawn off, it is mixed thoroughly and centrifuged at about 4000 g for 15 minutes. The supernatant is pipetted off.
# The activated partial thromboolastin time (aPTT) is determined in the presence of varying concentrations of test substance or the corresponding solvent using a commercial test kit (C. K. Prest from Diagnostica Stago). The test compounds are incubated with the plasma and the PTT reagent (cephalin, kaolin) at 37° C. for 3 minutes. Coagulation is then started by addition of a 25 mM aqueous calcium chloride solution, and the time when coagulation occurs is determined. The concentration of test substance which brings about a 1.5-fold extension of the aPTT is determined.
# human factor XIa = molecular target: T1, human factor XIa (Homo sapiens, UniProt P03951); assay: Measurement of FXIa inhibition (fluorogenic peptide substrate Boc-Glu(OBzl)-Ala-Arg-AMC); format: biochemical; details: factor XIa from Kordia, 15 min preincubation, 30 min at 22° C., fluorescence
# T1 construct: purchased Kordia
# Method: The factor XIa inhibition of the inventive substances is determined using a biochemical test system which utilizes the reaction of a peptidic factor XIa substrate to determine the enzymatic activity of human factor XIa. Here, factor XIa cleaves from the peptic factor XIa substrate the C-terminal aminomethylcoumarin (AMC), the fluorescence of which is measured. The determinations are carried out in microtitre plates.
# Test substances are dissolved in dimethyl sulphoxide and serially diluted in dimethyl sulphoxide (3000 μM to 0.0078 μM; resulting final concentrations in the test: 50 μM to 0.00013 μM). In each case 1 μl of the diluted substance solutions is placed into the wells of white microtitre plates from Greiner (384 wells). Subsequently, the following are added successively: 20 μl of assay buffer (50 mmol/l Tris buffer pH 7.4; 100 mmol/l sodium chloride; 5 mmol/l calcium chloride; 0.1% bovine serum albumin) and 20 μl of factor XIa from Kordia (0.45 nM in assay buffer). After 15 min of incubation, the enzyme reaction is started by addition of 20 μl of the factor XIa substrate Boc-Glu(OBzl)-Ala-Arg-AMC dissolved in assay buffer (10 μM in assay buffer) from Bachem, the mixture is incubated at room temperature (22° C.) for 30 min and fluorescence is then measured (excitation: 360 nm, emission: 460 nm). The measured emissions of the test mixtures with test substance are compared to those of control mixtures without test substance (only dimethyl sulphoxide instead of test substance in dimethyl sulphoxide), and the IC50 values are calculated from the concentration/activity relationships.
# T1 sequence (P03951 388-625 limits assumed): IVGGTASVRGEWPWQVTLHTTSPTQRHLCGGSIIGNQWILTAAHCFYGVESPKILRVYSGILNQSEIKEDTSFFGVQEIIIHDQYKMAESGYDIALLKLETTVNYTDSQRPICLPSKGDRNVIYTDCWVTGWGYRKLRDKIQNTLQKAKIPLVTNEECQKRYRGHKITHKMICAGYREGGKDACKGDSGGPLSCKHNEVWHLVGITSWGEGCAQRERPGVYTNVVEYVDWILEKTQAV
# T1 sequence (P03951 19-387 partner limits assumed): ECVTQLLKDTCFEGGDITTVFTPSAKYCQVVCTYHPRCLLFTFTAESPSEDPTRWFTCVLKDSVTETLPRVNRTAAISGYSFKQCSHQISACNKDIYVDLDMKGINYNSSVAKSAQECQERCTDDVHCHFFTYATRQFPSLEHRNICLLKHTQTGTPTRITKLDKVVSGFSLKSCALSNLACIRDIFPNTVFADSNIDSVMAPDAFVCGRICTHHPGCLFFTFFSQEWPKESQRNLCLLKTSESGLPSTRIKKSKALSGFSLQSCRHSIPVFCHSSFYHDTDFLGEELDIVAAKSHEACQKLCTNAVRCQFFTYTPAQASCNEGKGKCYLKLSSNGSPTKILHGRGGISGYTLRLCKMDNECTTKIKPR
SMILES,aPTT (human and animal plasma) [µmol/L],IC50 (human factor XIa) [nM]
"Cc1cc(C(=O)NC2CCC(N(C)C)CC2)ccc1-c1ccc(C[C@H](NC(=O)[C@H]2CC[C@H](CN)CC2)C(=O)Nc2ccc(-c3nn[nH]n3)c(F)c2)cc1 (stereo partly drawn) [Example 63, 4′-[(2S)-2-({[trans-4-(Aminomethyl)cyclohexyl]carbonyl}amino)-3-{[3-fluoro-4-(2H-tetrazol-5-yl)phenyl]amino}-3-oxopropyl]-N-[4-(dimethylamino)cyclohexyl]-2-methylbiphenyl-4-carboxamide hydrochloride]",0.01,2.1
"Cc1cc(C(=O)N[C@H]2CC[C@H](O)CC2)ccc1-c1ccc(C[C@H](NC(=O)[C@H]2CC[C@H](CN)CC2)C(=O)Nc2ccc(-c3nc(C(F)(F)C(F)(F)CO)n[nH]3)cc2)cc1 [Example 110, 4′-[(2S)-2-({[trans-4-(Aminomethyl)cyclohexyl]carbonyl}amino)-3-oxo-3-({4-[3-(1,1,2,2-tetrafluoro-3-hydroxypropyl)-1H-1,2,4-triazol-5-yl]phenyl}amino)propyl]-N-(trans-4-hydroxycyclohexyl)-2-methylbiphenyl-4-carboxamide hydrochloride]",0.11,1.8
"Cc1cc(C(=O)NC2C3CNCC32)ccc1-c1ccc(C[C@H](NC(=O)[C@H]2CC[C@H](CN)CC2)C(=O)Nc2ccc(-c3nnc(C(F)(F)C(F)(F)C(=O)O)[nH]3)cc2)cc1 (stereo partly drawn) [Example 154, 3-(5-[4-({(2S)-2-({[trans-4-(Aminomethyl)cyclohexyl]carbonyl}amino)-3-[4′-(3-azabicyclo[3.1.0]hex-6-ylcarbamoyl)-2′-methylbiphenyl-4-yl]propanoyl}amino)phenyl]-4H-1,2,4-triazol-3-yl}-2,2,3,3-tetrafluoropropanoic acid hydrochloride]",0.09,2.8
"Cc1cc(C(=O)NCCN)ccc1-c1ccc(C[C@H](NC(=O)[C@H]2CC[C@H](CN)CC2)C(=O)Nc2ccc(-c3nn[nH]n3)cc2)cc1 [Example 15, N-(2-Aminoethyl)-4′-[(2S)-2-({[trans-4-(aminomethyl)cyclohexyl]carbonyl}amino)-3-oxo-3-{[4-(2H-tetrazol-5-yl)phenyl]amino}propyl]-2-methylbiphenyl-4-carboxamide hydrochloride]",0.09,2.9
"COCc1nnc(-c2ccc(NC(=O)[C@H](Cc3ccc(-c4ccc(C(=O)NC5CCNCC5)cc4C)cc3)NC(=O)[C@H]3CC[C@H](CN)CC3)cc2)[nH]1 [Example 54, 4′-[(2S)-2-({[trans-4-(Aminomethyl)cyclohexyl]carbonyl}amino)-3-({4-[3-(methoxymethyl)-4H-1,2,4-triazol-5-yl]phenyl}amino)-3-oxopropyl]-2-methyl-N-(piperidin-4-yl)biphenyl-4-carboxamide hydrochloride]",0.24,16
"Cc1cc(C(=O)N[C@H]2CC[C@H](O)CC2)ccc1-c1ccc(C[C@H](NC(=O)[C@H]2CC[C@H](CN)CC2)C(=O)Nc2ccc(-c3nn[nH]n3)cc2)cc1 [Example 33, 4′-[(2S)-2-({[trans-4-(Aminomethyl)cyclohexyl]carbonyl}amino)-3-oxo-3-{[4-(2H-tetrazol-5-yl)phenyl]amino}propyl]-N-(trans-4-hydroxycyclohexyl)-2-methylbiphenyl-4-carboxamide hydrochloride]",0.11,0.78
"Cc1cc(C(=O)NCC(=O)N2CCC(N(C)C)CC2)ccc1-c1ccc(C[C@H](NC(=O)[C@H]2CC[C@H](CN)CC2)C(=O)Nc2ccc(-c3nnc(C(F)(F)C(F)(F)C(=O)O)[nH]3)cc2)cc1 [Example 114, 3-{5-[4-({(2S)-2-({[trans-4-(Aminomethyl)cyclohexyl]carbonyl}amino)-3-[4′-{(2-[4-(dimethylamino)piperidin-1-yl]-2-oxoethyl}carbamoyl)-2′-methylbiphenyl-4-yl]propanoyl}-amino)phenyl]-4H-1,2,4-triazol-3-yl}-2,2,3,3-tetrafluoropropanoic acid hydrochloride]",0.14,2.6
"Cc1cc(C(=O)NCCO)ccc1-c1ccc(C[C@H](NC(=O)[C@H]2CC[C@H](CN)CC2)C(=O)Nc2ccc3cn[nH]c3c2)cc1 [Example 17, 4′-[(2S)-2-({[trans-4-(Aminomethyl)cyclohexyl]carbonyl}amino)-3-(1H-indazol-6-ylamino)-3-oxopropyl]-N-(2-hydroxyethyl)-2-methylbiphenyl-4-carboxamide hydrochloride]",0.35,6.1
"COCCOCCOCCOCCNC(=O)c1ccc(-c2ccc(C[C@H](NC(=O)[C@H]3CC[C@H](CN)CC3)C(=O)Nc3ccc(-c4nn[nH]n4)cc3)cc2)c(Cl)c1 [Example 26, 4′-[(2S)-2-({[trans-4-(Aminomethyl)cyclohexyl]carbonyl}amino)-3-oxo-3-{[4-(2H-tetrazol-5-yl)phenyl]amino}propyl]-2-chloro-N-(2,5,8, 11-tetraoxatridecan-13-yl)biphenyl-4-carboxamide hydrochloride]",0.19,2.4
"Cc1cc(C(=O)N[C@H]2CCNC2)ccc1-c1ccc(C[C@H](NC(=O)[C@H]2CC[C@H](CN)CC2)C(=O)Nc2ccc3c(=O)[nH][nH]c3c2)cc1 [Example 25, 4′-{(2S)-2-({[trans-4-(Aminomethyl)cyclohexyl]carbonyl}amino)-3-oxo-3-[(3-oxo-2,3-dihydro-1H-indazol-6-yl)amino]propyl}-2-methyl-N-[(3S)-pyrrolidin-3-yl]biphenyl-4-carboxamide hydrochloride]",0.14,14
"Cc1cc(C(=O)NC2CCC(N(C)C)CC2)ccc1-c1ccc(C[C@H](NC(=O)[C@H]2CC[C@H](CN)CC2)C(=O)Nc2ccc(-c3nc(C(F)(F)C(F)(F)C(F)(F)F)n[nH]3)cc2)cc1 (stereo partly drawn) [Example 87, 4′-[(2S)-2-({[trans-4-(Aminomethyl)cyclohexyl]carbonyl}amino)-3-({4-[3-(heptafluoropropyl)-1H-1,2,4-triazol-5-yl]phenyl}amino)-3-oxopropyl]-N-[4-(dimethylamino)cyclohexyl]-2-methylbiphenyl-4-carboxamide hydrochloride]",0.47,2.8
"Cc1c(C(=O)NC2CCN(C)CC2)ccc(-c2ccc(C[C@H](NC(=O)[C@H]3CC[C@H](CN)CC3)C(=O)Nc3ccc(-c4nn[nH]n4)cc3)cc2)c1Cl [Example 125, 4′-[(2S)-2-({[trans-4-(Aminomethyl)cyclohexyl]carbonyl}amino)-3-oxo-3-{[4-(2H-tetrazol-5-yl)phenyl]amino}propyl]-2-chloro-3-methyl-N-(1-methylpiperidin-4-yl)biphenyl-4-carboxamide hydrochloride]",0.09,3
"CCN(CC)CCCNC(=O)c1ccc(-c2ccc(C[C@H](NC(=O)[C@H]3CC[C@H](CN)CC3)C(=O)Nc3ccc4c(=O)[nH][nH]c4c3)cc2)c(C)c1 [Example 24, 4′-{(2S)-2-({[trans-4-(Aminomethyl)cyclohexyl]carbonyl}amino)-3-oxo-3-[(3-oxo-2,3-dihydro-1H-indazol-6-yl)amino]propyl}-N-[3-(diethylamino)propyl]-2-methylbiphenyl-4-carboxamide hydrochloride]",0.31,18
"Cc1c(C(=O)NC2CCNCC2)ccc(-c2ccc(C[C@H](NC(=O)[C@H]3CC[C@H](CN)CC3)C(=O)Nc3ccc(-c4nn[nH]n4)cc3)cc2)c1C [Example 123, 4′-[(2S)-2-({[trans-4-(Aminomethyl)cyclohexyl]carbonyl}amino)-3-oxo-3-{[4-(2H-tetrazol-5-yl)phenyl]amino}propyl]-2,3-dimethyl-N-(piperidin-4-yl)biphenyl-4-carboxamide hydrochloride]",0.02,2.5
"Cc1cc(C(=O)NC2CCN(C)CC2)ccc1-c1ccc(C[C@H](NC(=O)[C@H]2CC[C@H](CN)CC2)C(=O)Nc2ccc(-c3nc(C(F)(F)C(F)(F)C(=O)O)n[nH]3)cc2)cc1 [Example 130, 3-[5-(4-{[(2S)-2-({[trans-4-(Aminomethyl)cyclohexyl]carbonyl}amino)-3-{2′-methyl-4′-[(1-methylpiperidin-4-yl)carbamoyl]biphenyl-4-yl}propanoyl]amino}phenyl)-1H-1,2,4-triazol-3-yl]-2,2,3,3-tetrafluoropropanoic acid]",0.12,
